Experimental data: ChEMBL document CHEMBL5214905 (J Med Chem, 2021)
Active and inactive are the calls of the source. No cut-off for these calls is given here.

Experiments:
[1] = molecular target: T1, Tryptophan 2,3-dioxygenase (Homo sapiens, UniProt P48775)
Description: Inhibition of human TDO (19 to 388 aa) expressed in Escherichia coli Transetta (DE3) by nanodrop 2000c spectrophotometric analysis

[2] = molecular target: T1, Tryptophan 2,3-dioxygenase; assay: Inhibition of TDO in overexpressing human SW48 cells; format: cell-based
[3] = molecular target: T1, Tryptophan 2,3-dioxygenase; assay: Inhibition of TDO in overexpressing human A-172 cells; format: cell-based
MDR1 [4] = assay: Apparent permeability in MDCKII expressing MDR1 cells across apical to basolateral side; format: ADME, cell-based, Canis lupus familiaris, MDCK-II; details: dog, MDCK-MDR1; read-out: permeability
BCRP [5] = assay: Apparent permeability in human Caco-2 expressing BCRP cells across apical to basolateral side; format: ADME, cell-based; details: read-out: permeability
MDR1 [6] = assay: Apparent permeability in MDCKII expressing MDR1 cells across basolateral to apical side; format: ADME, cell-based, Canis lupus familiaris, MDCK-II; details: dog, MDCK-MDR1; read-out: permeability
BCRP [7] = assay: Apparent permeability in human Caco-2 expressing BCRP cells across basolateral to apical side in presence of novobiocin; format: ADME, cell-based; details: Caco-2, with novobiocin (concentration not stated), read-out: permeability
MDR1 [8] = assay: Efflux ratio of apparent permeability across basolateral to apical side to apical to basolateral side in MDCKII expressing MDR1 cells; format: ADME, cell-based, Canis lupus familiaris, MDCK-II; details: dog, MDCK-MDR1
BCRP [9] = assay: Efflux ratio of apparent permeability across basolateral to apical side to apical to basolateral side in human Caco-2 expressing BCRP cells; format: ADME, cell-based
BCRP [10] = assay: Permeability in human Caco-2 expressing BCRP cells across apical to basolateral side by measuring ratio of the final amount of the compound in donor and receiver chambers to the initial amount of the compound in the donor chamber relative to control; format: ADME, cell-based
MDR1 [11] = assay: Permeability in MDCKII expressing MDR1 cells across basolateral to apical side by measuring ratio of the final amount of the compound in donor and receiver chambers to the initial amount of the compound in the donor chamber relative to control; format: ADME, cell-based, Canis lupus familiaris, MDCK-II; details: dog, MDCK-MDR1
BCRP [12] = assay: Permeability in human Caco-2 expressing BCRP cells across basolateral to apical side by measuring ratio of the final amount of the compound in donor and receiver chambers to the initial amount of the compound in the donor chamber relative to control; format: ADME, cell-based
BCRP [13] = assay: Permeability in human Caco-2 expressing BCRP cells across basolateral to apical side by measuring ratio of the final amount of the compound in donor and receiver chambers to the initial amount of the compound in the donor chamber in presence of novobiocin relative to control; format: ADME, cell-based; details: Caco-2, with novobiocin (concentration not stated)
[14] = Plasma protein binding in Kunming mouse assessed as binding rate by LC-MS/MS analysis relative to control; format: ADME; details: read-out: PPB (converted)
[15] = Protein binding in Kunming mouse brain assessed as binding rate by LC-MS/MS analysis relative to control; format: ADME, tissue-based; details: read-out: PB (converted)
[16] = AUC (0 to 12 hrs) in Sprague-Dawley rat plasma at 100 mg/kg, po measured after 0.083 to 24 hrs by HPLC analysis; format: ADME, organism-based; set-up: time lower 0.083 hrs, dose 100 mg/kg, time upper 24 hrs, route po
[17] = Half life in Sprague-Dawley rat plasma at 100 mg/kg, po by HPLC analysis; format: ADME, organism-based
[18] = Tmax in Sprague-Dawley rat plasma at 100 mg/kg, po measured after 0.083 to 24 hrs by HPLC analysis; format: ADME, organism-based; details: time 0.083-24 hrs
[19] = Cmax in Sprague-Dawley rat plasma at 100 mg/kg, po measured after 0.083 to 24 hrs by HPLC analysis; format: ADME, organism-based; set-up: time lower 0.083 hrs, dose 100 mg/kg, time upper 24 hrs, route po
[20] = AUC (0 to 12 hrs) in Sprague-Dawley rat plasma at 100 mg/kg, iv measured after 0.083 to 24 hrs by HPLC analysis; format: ADME, organism-based; set-up: dose 100 mg/kg, time 0.083-24 hrs, route iv
[21] = AUC (0 to infinity) in Sprague-Dawley rat plasma at 100 mg/kg, po measured after 0.083 to 24 hrs by HPLC analysis; format: ADME, organism-based; set-up: time 0.083-24 hrs, dose 100 mg/kg, route po
[22] = AUC (0 to infinity) in Sprague-Dawley rat plasma at 100 mg/kg, iv measured after 0.083 to 24 hrs by HPLC analysis; format: ADME, organism-based; set-up: time lower 0.083 hrs, dose 100 mg/kg, time upper 24 hrs, route iv
[23] = Ratio of drug concentration in total brain to total plasma in Kunming mouse assessed as blood brain barrier permeability measured at 0.5 to 12 hrs by HPLC analysis; details: time 0.5-12 hrs
[24] = Toxicity in MPTP induced C57BL/6J mouse neurodegenerative model assessed as no change in heart weight treated with MPTP for 7 days followed by compound administration at 10 to 30 mg/kg, po measured upto 32 days; format: organism-based; details: in vivo, 768 h, dose 10-30 mg/kg, time < 32 day
[25] = Toxicity in MPTP induced C57BL/6J mouse neurodegenerative model assessed as no change in spleen weight treated with MPTP for 7 days followed by compound administration at 10 to 30 mg/kg, po measured upto 32 days; format: organism-based; details: in vivo, 768 h, dose 10-30 mg/kg, time < 32 day
Mus musculus [26] = assay: Neuroprotective activity in MPTP induced C57BL/6J mouse neurodegenerative model assessed as normal cell morphology in neuron cells treated with MPTP for 7 days followed by compound administration at 30 mg/kg, po by IHC staining method; format: functional, organism-based
Mus musculus [27] = assay: Neuroprotective activity in MPTP induced C57BL/6J mouse neurodegenerative model assessed as normal fiber innervation in brain treated with MPTP for 7 days followed by compound administration at 30 mg/kg, po by IHC staining method; format: functional, organism-based
Mus musculus [28] = assay: In vivo antiinflammatory activity in MPTP induced C57BL/6J mouse neurodegenerative model assessed as decrease in TNF-alpha expression treated with MPTP for 7 days followed by compound administration at 30 mg/kg, po by Western blotting analysis; format: functional, organism-based
Mus musculus [29] = assay: Neuroprotective activity in MPTP induced neurodegenerative C57BL/6J mouse model assessed as decrease in tryptophan metabolite QUIN in mouse substantia nigra treated with MPTP for 7 days followed by compound administration at 30 mg/kg, po by LC-MS/MS analysis; format: functional, organism-based
Cytochrome P450 2C9 = Cytochrome P450 2C9 (Homo sapiens, UniProt P11712); assay: Inhibition of human liver microsome CYP2C9 using 4'-hydroxy diclofenac as substrate incubated for 10 mins by LC/MS/MS analysis; format: microsomes
Sequence of Cytochrome P450 2C9 (P11712 whole entry): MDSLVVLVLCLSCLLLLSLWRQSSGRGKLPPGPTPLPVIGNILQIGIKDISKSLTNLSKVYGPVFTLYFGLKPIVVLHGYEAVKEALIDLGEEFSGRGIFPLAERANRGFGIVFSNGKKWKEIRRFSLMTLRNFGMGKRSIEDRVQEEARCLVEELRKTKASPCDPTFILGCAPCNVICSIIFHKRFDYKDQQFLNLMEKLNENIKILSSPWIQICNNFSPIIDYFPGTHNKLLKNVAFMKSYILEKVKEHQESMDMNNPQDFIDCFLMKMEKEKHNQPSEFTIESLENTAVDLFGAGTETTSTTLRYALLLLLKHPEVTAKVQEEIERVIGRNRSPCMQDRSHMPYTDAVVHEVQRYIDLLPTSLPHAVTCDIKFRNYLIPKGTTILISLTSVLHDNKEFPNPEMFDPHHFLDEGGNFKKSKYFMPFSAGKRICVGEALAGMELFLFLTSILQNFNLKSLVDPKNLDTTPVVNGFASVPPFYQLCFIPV

CYP2C9 = CYP2C9 (Homo sapiens, UniProt P11712); assay: Inhibition of human liver microsome CYP2C9 using 4'-hydroxy diclofenac as substrate incubated at 3 uM for 10 mins by LC/MS/MS analysis relative to control; details: liver microsomes, probe 4'-hydroxy diclofenac (so in the source)
Sequence of CYP2C9 (P11712 whole entry): as above

[30] = molecular target: Glycogen synthase kinase-3 beta (Homo sapiens) (UniProt P49841); assay: Inhibition of human wildtype full length GSK3 beta expressed in bacterial system at 10 uM relative to control
Sequence of Glycogen synthase kinase-3 beta (Homo sapiens) (P49841 whole entry, looked up): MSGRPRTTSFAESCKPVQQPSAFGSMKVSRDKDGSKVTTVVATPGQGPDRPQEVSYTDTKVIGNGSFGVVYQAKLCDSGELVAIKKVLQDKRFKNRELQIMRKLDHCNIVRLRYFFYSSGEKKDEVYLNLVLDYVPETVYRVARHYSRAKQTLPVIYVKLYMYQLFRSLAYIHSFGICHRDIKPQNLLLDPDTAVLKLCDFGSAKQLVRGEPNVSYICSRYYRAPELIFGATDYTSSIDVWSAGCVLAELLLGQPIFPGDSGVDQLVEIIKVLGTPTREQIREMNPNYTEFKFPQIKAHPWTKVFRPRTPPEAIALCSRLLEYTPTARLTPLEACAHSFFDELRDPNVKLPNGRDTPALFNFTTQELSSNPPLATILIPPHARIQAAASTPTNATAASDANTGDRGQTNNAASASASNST

T1 sequence (P48775 whole entry): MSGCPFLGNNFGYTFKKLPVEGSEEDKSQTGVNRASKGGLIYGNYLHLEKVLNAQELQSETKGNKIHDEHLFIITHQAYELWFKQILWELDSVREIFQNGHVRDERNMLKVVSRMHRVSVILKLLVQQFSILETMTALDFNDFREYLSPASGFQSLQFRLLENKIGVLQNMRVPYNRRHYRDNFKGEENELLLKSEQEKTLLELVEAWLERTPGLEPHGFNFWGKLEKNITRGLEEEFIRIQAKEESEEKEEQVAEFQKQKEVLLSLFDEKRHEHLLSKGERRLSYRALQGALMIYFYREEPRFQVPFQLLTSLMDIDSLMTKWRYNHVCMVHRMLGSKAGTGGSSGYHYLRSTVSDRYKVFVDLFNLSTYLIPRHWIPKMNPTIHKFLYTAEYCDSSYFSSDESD

Work on `O[C@@H]1CCCC[C@H]1CNc1cc(Br)cc2[nH]ncc12` yielded an IC50 [1] of 0.04 µM, an EC50 [2] of 1.07 µM and an EC50 [3] of 3.03 µM. For the same compound, the Papp A→B (MDR1 [4]) was 13.5 ×10⁻⁶ cm/s, the Papp A→B (BCRP [5]) was 18.8 ×10⁻⁶ cm/s and the Papp B→A (MDR1 [6]) was 10.3 ×10⁻⁶ cm/s. The Papp B→A (BCRP [7]) was 9.97 ×10⁻⁶ cm/s, the efflux ratio (MDR1 [8]) was 0.77 and the efflux ratio (BCRP [9]) was 0.56. For the same compound, the recovery (BCRP [10]) was 42.2%, the recovery (MDR1 [11]) was 81.9% and the recovery (BCRP [12]) was 74.5%. It also gave a recovery (BCRP [13]) of 74.9%, a fraction unbound [14] of 0.0073 and a fraction unbound [15] of 0.0025. The AUC(0-t) [16] was 22200 ng·h/mL, the half-life [17] was 4.27 h and the Tmax [18] was 0.42 h. For the same compound, the Cmax [19] was 6870 ng/mL, the AUC(0-t) [20] was 30300 ng·h/mL and the AUC(0-inf) [21] was 26600 ng·h/mL. The AUC(0-inf) [22] was 43800 ng·h/mL, the Ratio [23] was 0.81% and the Activity [24] was “Non-Toxic”. For the same compound, the Activity [25] was “Non-Toxic”, the Activity (Mus musculus [26]) was “Active” and the Activity (Mus musculus [27]) was “Active”. The Activity (Mus musculus [28]) was “Active”, the Activity (Mus musculus [29]) was “Active” and the IC50 (Cytochrome P450 2C9) was 9.27 µM. It also gave an inhibition at 10 min, 3 µM (CYP2C9) of 83.4% and an inhibition [30] of over 90%.
